Several values for one entry are separate records, joined by “and”; a condition that tells them apart may be missing. Identical values can stand only once. Like-named read-outs stand apart in the source and are kept apart here.
Experiments:
F. trinervia PEPC = target: T1, F. trinervia PEPC (Flaveria trinervia, UniProt P30694); assay: biochemical; assay type: biochemical; details: for Selectivity C4/C3: C4 PEPC over C3 isoform
T1 construct: the full-length ppcA gene of PEPC from F. trinervia (EMBL-Bank X61304); made in house; host or cells: Escherichia coli BL21(DE3)
T1 sequence (P30694 1-966): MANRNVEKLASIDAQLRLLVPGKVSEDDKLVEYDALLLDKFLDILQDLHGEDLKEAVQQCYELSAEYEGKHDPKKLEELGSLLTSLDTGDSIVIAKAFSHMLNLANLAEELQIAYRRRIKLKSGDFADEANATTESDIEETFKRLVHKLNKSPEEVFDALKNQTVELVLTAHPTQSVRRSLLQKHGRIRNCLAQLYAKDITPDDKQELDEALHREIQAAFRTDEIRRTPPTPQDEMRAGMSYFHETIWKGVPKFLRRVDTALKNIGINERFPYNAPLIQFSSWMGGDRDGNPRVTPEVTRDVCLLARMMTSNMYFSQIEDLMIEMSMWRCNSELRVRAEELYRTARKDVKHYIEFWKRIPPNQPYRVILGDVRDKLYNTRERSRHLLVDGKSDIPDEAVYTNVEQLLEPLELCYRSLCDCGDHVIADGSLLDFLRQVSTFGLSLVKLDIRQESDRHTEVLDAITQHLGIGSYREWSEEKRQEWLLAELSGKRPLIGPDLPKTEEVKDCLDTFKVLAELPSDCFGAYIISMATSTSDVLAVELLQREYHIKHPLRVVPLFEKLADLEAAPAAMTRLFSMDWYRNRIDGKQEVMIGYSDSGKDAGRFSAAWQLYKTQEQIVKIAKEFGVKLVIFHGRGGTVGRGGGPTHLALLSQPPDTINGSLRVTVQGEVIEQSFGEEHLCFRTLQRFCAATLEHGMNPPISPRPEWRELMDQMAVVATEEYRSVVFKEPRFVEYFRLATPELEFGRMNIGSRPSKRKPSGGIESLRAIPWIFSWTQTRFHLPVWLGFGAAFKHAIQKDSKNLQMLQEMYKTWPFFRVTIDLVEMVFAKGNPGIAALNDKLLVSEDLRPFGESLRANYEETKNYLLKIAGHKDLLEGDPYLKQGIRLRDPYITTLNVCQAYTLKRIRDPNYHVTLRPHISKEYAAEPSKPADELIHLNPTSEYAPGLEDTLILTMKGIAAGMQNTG
Protocol: The IC50 values of small molecule compounds on F. pringlei and F. trinervia PEPCs were determined using PEPC coupled spectrophotometric assay. The amount of NADH oxidized by NADH-malate dehydrogenase was measured by the decrease in absorbance at 340 nm in a Beckman DU-800 spectrophotometer, thus the value is in proportion to the corresponding substrate conversion of the enzyme. […] The reactions were started by adding two folds of the Km value of PEP for each enzyme. The data were analyzed using GraFit (Erithacus Software, UK).

[1] = test system: Escherichia coli K-12 MG1655; assay: Bacterial growth in microscale cultivation, E. coli; assay type: cell-based; details: for activity at 0.3 µM / activity at 3 µM / activity at 30 µM: Escherichia coli
Protocol: The following bacteria were cultivated in the presence of trans-chalcone derived inhibitors: Corynebacterium glutamicum ATCC13032[43], Escherichia coli K-12 MG1655[44], Pseudomonas putida KT2440[45], and Bacillus subtilis 168[46]. The growth of these bacteria was monitored in flower-well plates shaken at 1200 rpm as backscatter at 620 nm (gain 20) using a BioLector® microscale cultivation system (m2p labs, Baesweiler, Germany). For further experimental details please refer to the Supplementary Information.
medium or the appropriate minimal medium and shaken at 140 rpm overnight. For inoculation of
the main culture, cells equivalent to an optical density at 600 nm of 0.5 (C. glutamicum, E. coli,
and P. putida) or 0.25 (B. subtilis) in 800 µL medium were washed and resuspended in fresh
media. Inhibitor substances were dissolved in DMSO and added to the media to a final
Since the least polar trans-chalcone and 2’-hydroxychalcone precipitated in the growth media at
the highest concentrations, the maximal concentration of these compounds was reduced to 400
µM and 100 µM, respectively. The final backscatter at 620 nm, the growth rate (h-1), and the
duration of the lag phase of all cultures were determined in a BioLector microscale cultivation
system in comparison to negative controls supplemented with the solvent DMSO. A longer lag

[2] = C4 PEPC, read-out: IC50 F. trinervia PEPC
[3] = MG1655, complex medium, 0.3 µM, relative to control, read-out: Final Backscatter
[4] = MG1655, complex medium, 0.3 µM, relative to control, read-out: Growth rate
[5] = MG1655, complex medium, 3 µM, relative to control, read-out: Final Backscatter
[6] = MG1655, complex medium, 3 µM, relative to control, read-out: Growth rate
[7] = MG1655, complex medium, 30 µM, relative to control, read-out: Final Backscatter
[8] = MG1655, complex medium, 30 µM, relative to control, read-out: Growth rate
[9] = MG1655, minimal medium, 0.3 µM, relative to control, read-out: Final Backscatter
[10] = MG1655, minimal medium, 0.3 µM, relative to control, read-out: Growth rate
[11] = MG1655, minimal medium, 3 µM, relative to control, read-out: Final Backscatter
[12] = MG1655, minimal medium, 3 µM, relative to control, read-out: Growth rate
[13] = MG1655, minimal medium, 30 µM, relative to control, read-out: Final Backscatter
[14] = MG1655, minimal medium, 30 µM, relative to control, read-out: Growth rate
[15] = complex medium, 0.3 µM, relative to control
[16] = complex medium, 3 µM, relative to control
[17] = complex medium, 30 µM, relative to control
[18] = minimal medium, 0.3 µM, relative to control
[19] = minimal medium, 3 µM, relative to control
[20] = minimal medium, 30 µM, relative to control

Structure (SMILES) | Selectivity C4/C3 (F. trinervia PEPC) [fold] | IC50 (F. trinervia PEPC; [2]) [µM] | activity at 0.3 µM [1, 3] [%] | activity at 0.3 µM [1, 4] [%] | activity at 3 µM [1, 5] [%] | activity at 3 µM [1, 6] [%] | activity at 30 µM [1, 7] [%] | activity at 30 µM [1, 8] [%] | activity at 0.3 µM [1, 9] [%] | activity at 0.3 µM [1, 10] [%] | activity at 3 µM [1, 11] [%] | activity at 3 µM [1, 12] [%] | activity at 30 µM [1, 13] [%] | activity at 30 µM [1, 14] [%] | Lag Phase [1, 15] | Lag Phase [1, 16] | Lag Phase [1, 17] | Lag Phase [1, 18] | Lag Phase [1, 19] | Lag Phase [1, 20] | also measured
O=C(/C=C/c1cc(O)c(O)c(O)c1)c1ccc(O)cc1O [Compound 9, 2′,4′,3,4,5-Pentahydroxychalcone] | 8.1 | 4.2 ± 1.4 | 100 | 103 | 99.7 | 95.4 | 98.2 | 87.6 | 100 | 106 | 101 | 110 | 102 | 110 | 103,4% | 103,4% | 110,3% | 100,0% | 98,2% | 96,4% | –
O=C(/C=C/c1ccccc1)c1ccc(O)c(O)c1O [Compound 10, 2′,3′,4′-Trihydroxychalcone] | 15 | – | – | – | – | – | – | – | – | – | – | – | – | – | 92,1% | 94,8% | 118,4% | 92,1% | 90,6% | 92,1% | Selectivity C4/C3 (F. trinervia PEPC; listed as 2′,3′,4′-Trihydroxychalcone): 15–45 fold; IC50 (F. trinervia PEPC; IC50 F. trinervia PEPC, C4 PEPC): 4.2 ± 1.5 µM; activity at 0.3 µM ([1]; MG1655, read-out: Final Backscatter, complex medium, 0.3 µM, relative to control): 106%; activity at 3 µM ([1]; MG1655, read-out: Final Backscatter, complex medium, 3 µM, relative to control): 106%; activity at 30 µM ([1]; MG1655, read-out: Final Backscatter, complex medium, 30 µM, relative to control): 98.9%; activity at 0.3 µM ([1]; MG1655, read-out: Final Backscatter, minimal medium, 0.3 µM, relative to control): 105%; activity at 3 µM ([1]; MG1655, read-out: Final Backscatter, minimal medium, 3 µM, relative to control): 105%; activity at 30 µM ([1]; MG1655, read-out: Final Backscatter, minimal medium, 30 µM, relative to control): 109%; activity at 0.3 µM ([1]; MG1655, read-out: Growth rate, complex medium, 0.3 µM, relative to control): 109%; activity at 3 µM ([1]; MG1655, read-out: Growth rate, complex medium, 3 µM, relative to control): 99.8%; activity at 30 µM ([1]; MG1655, read-out: Growth rate, complex medium, 30 µM, relative to control): 104%; activity at 0.3 µM ([1]; MG1655, read-out: Growth rate, minimal medium, 0.3 µM, relative to control): 96.3%; activity at 3 µM ([1]; MG1655, read-out: Growth rate, minimal medium, 3 µM, relative to control): 92%; activity at 30 µM ([1]; MG1655, read-out: Growth rate, minimal medium, 30 µM, relative to control): 99.2%
O=C(/C=C/c1ccc(O)c(O)c1)c1c(O)cc(O)cc1O [Compound 11, 2′,4′,6′,3,4-Pentahydroxy-chalcone] | 3.3 | 2.5 ± 0.1 | 98 | 104 | 98.1 | 106 | 96.9 | 104 | 98 | 107 | 98.7 | 109 | 97.9 | 107 | 107,1% | 107,1% | 107,1% | 103,4% | 101,7% | 103,4% | lower inhibitory effect / weaker inhibitory potency compared to okanin (12) (F. trinervia PEPC; C4 PEPC): ~ four; decreased / lower selectivity compared to okanin (12) (F. trinervia PEPC; C4 vs. C3 PEPC): ~ 14 fold and ~ 13 fold
